Results reported in patent US20260272869A1, “ORAL COMPOSITION COMPRISING L-THEANINE” (NICOVENTURES TRADING LIMITED, priority 2023, published 2026).

Tested on: blood-brain barrier
Assay: Enhancement of blood-brain barrier permeation of P-glycoprotein substrate compounds by piperine
Details: P-glycoprotein substrate compound combined with piperine

Row | Structure (SMILES) | Permeation across the blood-brain barrier / bioavailability when combined with piperine
1 | CC(/C=C/C=C(\C)C(=O)O)=C\C=C\C=C(C)\C=C\C=C(/C)C(=O)O [crocetin] | enhanced
2 | CC(/C=C/C=C(\C)C(=O)O[C@@H]1O[C@H](CO[C@@H]2O[C@H](CO)[C@@H](O)[C@H](O)[C@H]2O)[C@@H](O)[C@H](O)[C@H]1O)=C\C=C\C=C(C)\C=C\C=C(/C)C(=O)O[C@@H]1O[C@H](CO[C@@H]2O[C@H](CO)[C@@H](O)[C@H](O)[C@H]2O)[C@@H](O)[C@H](O)[C@H]1O [crocin] | enhanced
3 | CC1=C(C)C(=O)O[C@@H]([C@](C)(O)[C@H]2CC[C@H]3[C@@H]4[C@@H]5O[C@@H]5[C@@]5(O)CC=CC(=O)[C@]5(C)[C@H]4CC[C@]23C)C1 [withanolide A] | enhanced
4 | CC1=C(C)C(=O)O[C@@H]([C@@H](C)[C@@]2(O)CC[C@H]3[C@@H]4[C@@H]5O[C@@H]5[C@@]5(O)CC=CC(=O)[C@]5(C)[C@H]4CC[C@@]32C)C1 [withanone] | enhanced
